Reference: doi:10.1101/2023.02.27.530254, “Large library docking for cannabinoid-1 receptor agonists with reduced side effects” (bioRxiv, 2024)
“And” between values parts separate entries of the source, which are not always exact repeats. Identical values can stand only once.

Experiments:
CB1R = molecular target: T1, CB1R (Homo sapiens, UniProt P21554, C107A/C139A/C149A/C238A/C355A/C382A/C386A/C415A/C431A/C449A/C98A/R336C); test: Bimane fluorescence of TM6-labeled minimal cysteine CB1R; assay type: biochemical; conditions: 10 μM ligand; apo 459 nm
T1 construct: N-terminal FLAG tag and C-terminal histidine tag was added to human full-length CB1; FLAG (N); histidine tag (C); made in house; host or cells: Spodoptera frugiperda Sf9 (baculovirus)
Procedure: A minimal cysteine version of CB1R was generated[73] where all the cysteine residues (except C256 and C264) were mutated to alanine. […] Excess label was removed using size exclusion chromatography on a Superdex 200 10/300 Increase column in 20 mM HEPES pH 7.5, 100 mM NaCl and 0.01% MNG/0.001% CHS. Bimane-labeled CB1R at […] was incubated with ligands (10 μM) for one hour at room temperature. Fluorescence data was collected at room temperature in a 150 μL cuvette with a FluorEssence v3.8 software on a Fluorolog instrument (Horiba) in photon-counting mode. Bimane fluorescence was measured by excitation at 370 nm with excitation and emission bandwidth passes of 4 nm. The emission spectra were recorded from 410 to 510 nm with 1 nm increment and 0.1 s integration time.

CB1 = molecular target: T2, CB1 (Rattus norvegicus, UniProt P20272); test: Radioligand competition binding with [3H]-CP-55,940, rat brain membranes; conditions: for Ki: [3H]-CP-55,940 competition, rat brain membranes
T2 construct: membrane preparations from rat brain (source of CB1); tissue Bioivt RAT00BRAINMZN; host or cells: rat brain
Procedure: The results were analyzed using nonlinear regression to determine the IC50 and Ki values for each ligand (Prism by GraphPad Software, Inc., San Diego, CA). The Ki values are expressed as the mean of two to three experiments each performed in triplicate.

hCB1 [1] = molecular target: T3, hCB1 (Homo sapiens, UniProt P21554); test: Lance Ultra cAMP accumulation assay (inhibition of forskolin-stimulated cAMP), CHO cells; assay type: cell-based; design: expressed in transfected cells
Procedure: The inhibition of forskolin-stimulated cAMP accumulation assays was carried out using PerkinElmer’s Lance Ultra cAMP kit following the manufacturer’s protocol. In brief, CHO cells stably expressing human CB1R were harvested by incubation with Versene (ThermoFisher Scientific, Waltham, MA) for 10 min, washed once with Hank’s Balanced Salt Solution, and resuspended in stimulation buffer at ~200 cells/μL density. The ligands at eight different concentrations (0.001–10,000 nM) in stimulation buffer (5 μL) containing forskolin (2 μM final concentration) were added to a 384-well plate followed by the cell suspension (5 μL; ~1000 cells/well). The plate was incubated for 30 min at room temperature. Eu-cAMP tracer (5 μL) and Ulight-anti-cAMP (5 μL) working solutions were then added to each well, and the plate was incubated at room temperature for an additional 60 min. Results were measured on a Perkin-Elmer EnVision plate reader. The EC50 values were determined by nonlinear regression analysis using Prism software (GraphPad Software, Inc., San Diego, CA) and are expressed as the mean of three experiments, each performed in triplicate.

hCB1 [2] = molecular target: T3, hCB1; test: bioSens-All ebBRET effector biosensor signaling profiling, HEK293; assay type: cell-based; design: host or cells: HEK293 (HEK293SL clone), transient
Procedure: ebBRET-based effector membrane translocation biosensor assays were conducted at Domain Therapeutics NA Inc. (Montreal, QC, Canada) as previously described. […] HEK293 cells were maintained in Dulbecco’s Modified Eagle Medium (DMEM) (Wisent) supplemented with 1% penicillin- streptomycin (Wisent) and 10% (or 2 % for transfection) fetal bovine serum (Wisent) at 37°C with 5% CO2. All biosensor-coding plasmids and related information are the property of Domain Therapeutics NA Inc. The total amount of transfected DNA was adjusted and kept constant at 1 μg per mL of cell culture to be transfected using salmon sperm DNA (Invitrogen) as ‘carrier’ DNA, PEI (polyethylenimine 25 kDa linear, PolyScience) and DNA (3:1 ml PEI:mg DNA ratio) were first diluted separately in 150 mM NaCl then mixed and incubated for at least 20 minutes at room temperature to allow for the formation of DNA/PEI complexes. During the incubation, HEK293 cells were detached, counted, and re-suspended in maintenance medium to a 350,000 cells per mL density. At the end of the incubation period, the DNA/PEI mixture was added to the cells. Cells were finally distributed in 96-well plates (White Opaque 96-well /Microplates, Greiner) at a density of 35,000 cells per well. Forty-eight hours post-transfection, medium was aspirated and replaced with 100 μl of Hank’s Balanced Salt Solution buffer (HBSS) (Wisent) per well using 450-Select TS Biotek plate washer. After 60 min incubation in this medium, 10 μL of 10 μM e-Coelenterazine Prolume Purple (Methoxy e-CTZ) (Nanolight) was added to each well for a final concentration of 1 μM immediately followed by addition of increasing concentrations of the test compounds to each well using the HP D300 digital dispenser (Tecan). All compounds were assayed at 22 concentrations with each biosensor after a 10-minute room temperature incubation period. […] All BRET ratios were standardized using the universal BRET (uBRET) equation: uBRET=BRETratio-A/B-A×10,000 where A is the BRET ratio obtained from transfection of negative control and B is the BRET ratio obtained from transfection of positive control. […] The data were analyzed using the four-parameter logistic non-linear regression model in GraphPad Prism 9.1 and data were presented as means ± CIs of 1–4 independent experiments.
The SEM was calculated for the logEmax/EC50 ratios using the following equation: SEM=σ/n where σ is the standard deviation, and n is the number of experiments.

C56BL/6 mice = test: Conditioned place preference; conditions: mouse, in vivo
Procedure: To determine if ‘4042 was inherently rewarding or aversive we used the conditioned place paradigm as described. Briefly, mice were first habituated to the test apparatus, twice, and their preference for each chamber recorded for 30 minutes (Pretest). Two conditioning days followed in which mice received the vehicle control or the compound, and 30 minutes later restricted for 30 minutes in the preferred or non-preferred chamber, respectively. On day 5 (Test day), mice were allowed to roam freely between the 3 chambers of the apparatus and their preference for each chamber recorded for 30 minutes. To calculate the CPP score, we subtracted the time spent in each chamber of the box on the Pretest day from that of the Test day (CPP score = Test - Pretest).

T2 sequence (P20272 whole entry): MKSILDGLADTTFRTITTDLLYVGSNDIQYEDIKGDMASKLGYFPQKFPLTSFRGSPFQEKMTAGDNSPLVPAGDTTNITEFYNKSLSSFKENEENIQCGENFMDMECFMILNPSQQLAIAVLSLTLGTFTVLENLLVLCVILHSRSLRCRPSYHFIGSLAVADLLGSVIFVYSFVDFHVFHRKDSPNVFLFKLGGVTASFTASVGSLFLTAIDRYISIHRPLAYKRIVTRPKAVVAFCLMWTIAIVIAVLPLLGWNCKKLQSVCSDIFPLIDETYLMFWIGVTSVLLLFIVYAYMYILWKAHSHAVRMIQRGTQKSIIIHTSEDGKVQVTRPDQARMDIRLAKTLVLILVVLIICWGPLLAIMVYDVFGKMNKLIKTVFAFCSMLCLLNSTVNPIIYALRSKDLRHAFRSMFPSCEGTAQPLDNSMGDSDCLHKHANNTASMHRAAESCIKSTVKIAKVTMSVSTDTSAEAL
T3 sequence (P21554 whole entry): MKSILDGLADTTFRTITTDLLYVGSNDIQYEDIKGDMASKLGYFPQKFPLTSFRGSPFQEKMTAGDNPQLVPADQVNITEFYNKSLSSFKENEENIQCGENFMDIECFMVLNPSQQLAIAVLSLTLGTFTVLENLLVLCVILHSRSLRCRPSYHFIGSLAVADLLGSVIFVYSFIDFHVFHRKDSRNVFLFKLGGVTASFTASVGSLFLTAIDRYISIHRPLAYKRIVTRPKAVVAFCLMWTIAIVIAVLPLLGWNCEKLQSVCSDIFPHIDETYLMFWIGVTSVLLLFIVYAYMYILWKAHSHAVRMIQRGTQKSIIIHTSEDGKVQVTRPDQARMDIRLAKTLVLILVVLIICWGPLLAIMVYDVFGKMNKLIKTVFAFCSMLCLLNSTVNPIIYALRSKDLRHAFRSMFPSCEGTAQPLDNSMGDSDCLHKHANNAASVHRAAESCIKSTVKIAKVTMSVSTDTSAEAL
T1 sequence (P21554 whole entry C98A/C107A/C139A/C149A/C238A/R336C/C355A/C382A/C386A/C415A/C431A/C449A): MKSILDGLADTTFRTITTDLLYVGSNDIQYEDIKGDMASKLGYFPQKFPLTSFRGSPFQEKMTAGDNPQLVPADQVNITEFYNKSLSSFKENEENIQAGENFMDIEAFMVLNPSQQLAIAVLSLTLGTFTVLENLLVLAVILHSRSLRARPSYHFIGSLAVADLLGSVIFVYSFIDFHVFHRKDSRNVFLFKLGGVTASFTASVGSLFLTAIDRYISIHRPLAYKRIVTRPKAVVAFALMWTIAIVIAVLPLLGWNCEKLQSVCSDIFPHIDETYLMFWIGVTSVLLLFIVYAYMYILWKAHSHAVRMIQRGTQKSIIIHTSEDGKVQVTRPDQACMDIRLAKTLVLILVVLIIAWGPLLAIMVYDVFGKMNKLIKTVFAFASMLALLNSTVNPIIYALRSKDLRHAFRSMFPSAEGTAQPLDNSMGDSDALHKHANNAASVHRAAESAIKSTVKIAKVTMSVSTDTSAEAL

Structure (SMILES) | bimane spectrum λmax (CB1R) | Emax (CB1; maximal radioligand displacement, read-out: rCB1 binding Emax [SEM]) | Ki (CB1; rCB1 binding Ki [95% CI]) | Ki (CB1; rCB1 binding pKi [95% CI]) | EC50 (hCB1 [1]) | Emax (hCB1 [1]; CHO, read-out: hCB1 Lance Ultra cAMP Emax [95% CI]) | Emax (hCB1 [2]; HEK293, read-out: hCB1 Gi1 Emax [95% CI]) | Emax (hCB1 [2]; HEK293, read-out: hCB1 GoB Emax [95% CI]) | Emax (hCB1 [2]; HEK293, read-out: hCB1 Gz Emax [95% CI]) | EC50 (hCB1 [2]; hCB1 Gi1 EC50 [95% CI], Gi1 sensor) | EC50 (hCB1 [2]; hCB1 GoB EC50 [95% CI], GoB sensor) | EC50 (hCB1 [2]; hCB1 GoB pEC50 [95% CI], GoB sensor) | EC50 (hCB1 [2]; hCB1 Gz EC50 [95% CI], Gz sensor) | conditioned place preference (C56BL/6 mice)
COC(=O)[C@](C)(NC(=O)c1cc(C)n(-c2cccc(C(F)(F)F)c2)n1)c1cccs1 [‘8690] | 459 nm | 100% | 90 nM and 90.2 nM | 79.4 nM | 473 nM | 53% | 82% | 83% | 98% | 19.1 nM | 18 nM | 15.8 nM | 33 nM | –
CN1CC[C@]23c4c5ccc(O)c4O[C@H]2[C@@H](O)C=C[C@H]3[C@H]1C5 [morphine, reference compound] | – | – | – | – | – | – | – | – | – | – | – | – | – | significantly increased their preference
